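Protocol summary: plate cells (96-well), add compound at 5 concentrations, incubate 48 h, interpolate endpoints linearly. At the GI50, growth is halved.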 The source made the active and inactive calls. Rule as the data show it: active = GI50 up to about 1.1 µM and inactive = higher.
Columns and labels:
Assay in all cases: growth of human tumour cells (NCI), 48 h
[1] = system: A549
[2] = system: ACHN
[3] = system: COLO 205
[4] = system: HCC 2998
[5] = system: HOP-92
[6] = system: HT-29
[7] = system: KM12
[8] = system: MDA-MB-435
[9] = system: NCI-H522
[10] = system: NCI/ADR-RES
[11] = system: PC-3
[12] = system: SF-268
[13] = system: SF-539
[14] = system: SK-MEL-28
[15] = system: UACC-257
[16] = system: BT-549
[17] = system: MOLT-4
[18] = system: NCI-H460
[19] = system: SK-OV-3

Measured: GI50

COc1cccc(C2c3cc4c(cc3OC(N3CCCC3)C2C)OCO4)c1 (configuration not stated)
inactive: [1] 9.2 µM | [2] 8.79 µM | [3] 9.77 µM | [4] 11.9 µM | [5] 2.83 µM | [6] 4.58 µM | [7] 6.01 µM | [8] 2.7 µM | [9] 3.92 µM | [10] 4.53 µM | [11] 11 µM | [12] 14.7 µM | [13] 8.69 µM | [14] 8.79 µM | [15] 12.1 µM

O=S1(=O)NN=C(NCc2ccc(F)cc2)c2ccccc21
inactive: [1] > 90.2 µM | [2] 95.5 µM | [16] 67.5 µM | [3] > 76.4 µM | [4] > 67.6 µM | [5] 24.7 µM | [6] > 63.1 µM | [7] > 100 µM | [8] > 100 µM | [17] > 36 µM | [18] > 31.6 µM | [10] 65.2 µM | [12] > 100 µM | [13] > 85.5 µM | [14] > 100 µM | [19] 50.6 µM | [15] 69.2 µM

Brc1ccc(C2(N3CCCCC3)CCCCC2)s1
inactive: [1] 39 µM | [2] 51.1 µM | [16] 30.5 µM | [4] 15.7 µM | [5] 19.7 µM | [6] 23.5 µM | [7] 28.4 µM | [8] 23.9 µM | [17] 16.4 µM | [18] 26.7 µM | [9] 27.3 µM | [11] 34.1 µM | [12] 48.9 µM | [19] 45.2 µM | [15] 29.8 µM

Cc1cc(Br)c(N2C3=C(CC4=C2CCCC4=O)C(=O)CCC3)c(Br)c1
inactive: [1] 39.8 µM | [2] 46.8 µM | [16] 51.3 µM | [4] > 100 µM | [5] 25.6 µM | [6] 42.3 µM | [7] 62.5 µM | [17] 15.4 µM | [18] 31.5 µM | [10] 32.1 µM | [11] 18.6 µM | [12] 75.5 µM | [13] > 100 µM | [14] > 100 µM | [19] > 100 µM

Reference: ChEMBL document CHEMBL1201862, “PubChem BioAssay data set” (2004)
